Experimental data taken from US20020025337A1, “LIPID VEHICLE DRUG DELIVERY COMPOSITION CONTAINING VITAMIN E” (priority 1995, published 2002).
≈ marks a conversion by molar mass, not a printed value.

Experiment: Saturated solubility of drugs in water, organic solvents, oils and Vitamin E
Conditions: for solubility / solubility at 18 h: 25 °C
Procedure: To measure the SVE of a drug, saturated solutions of the drug are prepared in methanol and chloroform. An appropriate means of preparing a saturated solution is to suspend approximately 60 mg of drug in 3 ml of the solvent and stir for 24 hours at room temperature. If all of the drug dissolves during this time, further 10 mg aliquots should be added until a suspension is again formed. After 24 hours, the suspension are centrifuged or filtered to separate drug in solution from undissolved particulate drug. The drug solutions are assayed for drug content by an appropriate means, eg. high performance liquid chromatography, and the saturated solubility calculated. The SVE is calculated by dividing the solubility in chloroform by the solubility in methanol and expressed as weight in volume (w/v).
Into each of two 10 ml bottles was weighed 60 mg of itraconazole. To one bottle was added 3 ml of chloroform. […] Further itraconazole was added in 100 mg aliquots until a suspension was formed. […] To the other bottle was added 3 ml of methanol. A magnetic stirrer bar was added to each bottle and the contents were left to stir on a magnetic stirrer. After being left overnight to stir (18 hours), the contents of each bottle were filtered through a 0.1 μm PTFE filter (Whatman). […] To assay the methanol filtrate for itraconazole content, 1 ml was diluted to 5 ml with the same diluent used for the chloroform analysis. Both samples were assayed for itraconazole content using reverse-phase high performance liquid chromatography.

[1] = oil or lipid, Solubility (mg/ml) Vitamin E
[2] = organic solvent or mixture, thermodynamic from solid, Solubility (mg/ml) Chloroform
[3] = organic solvent or mixture, thermodynamic from solid, Solubility (mg/ml) Methanol

Row | SMILES | Solubility (mg/ml) Water | solubility [1] [mg/mL] | solubility [2] [mg/mL] | solubility [3] [mg/mL] | also measured
1 | C[C@]12C=CC(=O)C=C1CC[C@@H]1[C@@H]2[C@@H](O)C[C@@]2(C)[C@H]1CC[C@]2(O)C(=O)CO [Prednisolone] |  |  |  |  | solubility (organic solvent or mixture, thermodynamic from solid, Solubility (mg/ml) Methanol, methanol, room temperature (25° C.)): 33 mg/mL (≈ 91.6 mM)
2 | CCC(C)n1ncn(-c2ccc(N3CCN(c4ccc(OCC5COC(Cn6cncn6)(c6ccc(Cl)cc6Cl)O5)cc4)CC3)cc2)c1=O (centres unmarked) [Itraconazole] | insol | 60 (≈ 85 mM) | 500 (≈ 709 mM) |  | solubility (oil or lipid, solubility of the drug in vegetable oils): ≤ 0.4 mg/mL; solubility at 18 h (organic solvent or mixture, thermodynamic from solid, solubility of itraconazole in chloroform): 350 mg/mL (≈ 496 mM); solubility at 18 h (organic solvent or mixture, thermodynamic from solid, solubility of itraconazole in methanol): 0.7 mg/mL (≈ 0.992 mM); SVE value (18 h): 500
3 | CC(C)CCC[C@@H](C)[C@H]1CC[C@H]2[C@@H]3CC=C4C[C@@H](O)CC[C@]4(C)[C@H]3CC[C@]12C [Cholesterol] | insol. | 150 (≈ 388 mM) | 200 (≈ 517 mM) | 5 (≈ 12.9 mM) | 
4 | CC(C)[C@@H](C)/C=C/[C@@H](C)[C@H]1CC[C@H]2C3=CC=C4C[C@@H](O)CC[C@]4(C)[C@H]3CC[C@]12C [Ergosterol] | insol. | 50 (≈ 126 mM) | 32 (≈ 80.7 mM) | 1.5 (≈ 3.78 mM) | 
5 | CC(=O)O[C@H]1C(=O)[C@@]2(C)[C@H]([C@H](OC(=O)c3ccccc3)[C@]3(O)C[C@H](OC(=O)[C@H](O)[C@@H](NC(=O)c4ccccc4)c4ccccc4)C(C)=C1C3(C)C)[C@]1(OC(C)=O)CO[C@@H]1C[C@@H]2O [Taxol] | insol |  |  |  | 
6 | C[C@@H]1[C@H](O)[C@@H](C)/C=C/C=C/C=C/C=C/C=C/C=C/C=C/[C@H](O[C@@H]2O[C@H](C)[C@@H](O)[C@H](N)[C@@H]2O)C[C@@H]2O[C@](O)(C[C@@H](O)C[C@@H](O)[C@H](O)CC[C@@H](O)C[C@@H](O)CC(=O)O[C@H]1C)C[C@H](O)[C@H]2C(=O)O [Amphotericin] | insol. |  |  |  | Solubility (mg/ml) Chloroform: insol.; Solubility (mg/ml) Vitamin E: insol.
